# Data as given in patent EP1561465A2, “Methods of use of fluoroquinolone compounds against bacteria” (LG Life Sciences, Ltd., priority 1999, dated 2001).
# Where two headings read alike, the source gives them in different places.
# Experiments:
# Type in all cases: cell-based
# Streptococcus pneumoniae [1] = assay: MIC by agar dilution (NCCLS), 411 isolates Buenos Aires 1998-99; conditions: Streptococcus pneumoniae, S. pneumoniae, read-out: MIC90
# Klebsiella pneumoniae = assay: MIC by NCCLS reference broth microdilution, 450 respiratory tract pathogens; conditions: Klebsiella pneumoniae
# Streptococcus pneumoniae [2] = assay: as above; conditions: for MIC50 / MIC90 / MIC: Streptococcus pneumoniae
# Haemophilus influenzae = assay: as above; conditions: Haemophilus influenzae; for MIC90: read-out: MIC90
# Moraxella catarrhalis = assay: as above
# Staphylococcus aureus = assay: as above
# Streptococcus pyogenes = assay: as above; conditions: Streptococcus pyogenes
# [3] = Penicillin intermediate (n = 17)
# [4] = Penicillin susceptible (n = 69)
# [5] = extended spectrum β-lactamase positive (n = 20)
# [6] = Streptococcus pneumoniae (n = 100)
# [7] = erythromycin resistant M phenotype (n = 16)
# [8] = erythromycin resistant MLSB phenotype (n = 16)
# [9] = penicillin intermediate (n = 16)
# [10] = penicillin susceptible (n = 20)
# [11] = Haemophilus influenzae (n = 100)
# [12] = β-lactamase positive and erythromycin resistant (n = 10)
# [13] = Streptococcus pyogenes (n = 100)
# [14] = erythromycin resistant C phenotype [MLSB] (n = 20)
# [15] = erythromycin resistant I phenotype [MLSB] (n = 20)
# [16] = erythromycin resistant M phenotype (n = 20)
smiles,measurement,setting,value
"CO/N=C(\C(=O)N[C@@H]1C(=O)N2C(C(=O)O)=C(CSc3nc(=O)c(=O)[nH]n3C)CS[C@H]12)c1csc(N)n1 [Ceftriaxone, ceftriaxone]",MIC90,Streptococcus pneumoniae [1]; [3],1 µg/mL
same,MIC90,Streptococcus pneumoniae [1]; Penicillin resistant (n = 4),1 µg/mL
same,MIC90,Streptococcus pneumoniae [1]; [4],0.016 µg/mL
"CO/N=C(\C(=O)N[C@@H]1C(=O)N2C(C(=O)O)=C(COC(N)=O)CS[C@H]12)c1ccco1 [Cefuroxime, cefuroxime]",MIC50,Klebsiella pneumoniae; Klebsiella pneumoniae (n = 50),2 µg/mL
same,MIC90,Klebsiella pneumoniae; Klebsiella pneumoniae (n = 50),128 µg/mL
same,MIC50,Klebsiella pneumoniae; [5],128 µg/mL
same,MIC90,Klebsiella pneumoniae; [5],> 128 µg/mL
same,MIC Range,Streptococcus pneumoniae [2]; [6],≤0.0075 to 8 µg/mL
same,MIC50,Streptococcus pneumoniae [2]; [6],0.03 µg/mL
same,MIC90,Streptococcus pneumoniae [2]; [6],2 µg/mL
same,MIC,Streptococcus pneumoniae [2]; [7],0.0075 to 0.12 µg/mL
same,MIC50,Streptococcus pneumoniae [2]; [7],0.015 µg/mL
same,MIC90,Streptococcus pneumoniae [2]; [7],0.12 µg/mL
same,MIC,Streptococcus pneumoniae [2]; [8],0.015 to 0.5 µg/mL
same,MIC50,Streptococcus pneumoniae [2]; [8],0.015 µg/mL
same,MIC90,Streptococcus pneumoniae [2]; [8],0.03 µg/mL
same,MIC,Streptococcus pneumoniae [2]; multi-drug resistant (n = 16),0.015 to 0.25 µg/mL
same,MIC50,Streptococcus pneumoniae [2]; multi-drug resistant (n = 16),0.03 µg/mL
same,MIC90,Streptococcus pneumoniae [2]; multi-drug resistant (n = 16),0.03 µg/mL
same,MIC,Streptococcus pneumoniae [2]; [9],0.12 to 8 µg/mL
same,MIC50,Streptococcus pneumoniae [2]; [9],2 µg/mL
same,MIC90,Streptococcus pneumoniae [2]; [9],2 µg/mL
same,MIC,Streptococcus pneumoniae [2]; penicillin resistant (n = 18),2 to 8 µg/mL
same,MIC50,Streptococcus pneumoniae [2]; penicillin resistant (n = 18),2 µg/mL
same,MIC90,Streptococcus pneumoniae [2]; penicillin resistant (n = 18),8 µg/mL
same,MIC,Streptococcus pneumoniae [2]; [10],0.0075 to 0.015 µg/mL
same,MIC50,Streptococcus pneumoniae [2]; [10],0.015 µg/mL
same,MIC90,Streptococcus pneumoniae [2]; [10],0.015 µg/mL
same,MIC,Haemophilus influenzae; [11],0.12 to 4 µg/mL
same,MIC50,Haemophilus influenzae; [11],0.5 µg/mL
same,MIC90,Haemophilus influenzae; [11],1 µg/mL
same,MIC,Haemophilus influenzae; β-lactamase negative (n = 80),0.25 to 1 µg/mL
same,MIC50,Haemophilus influenzae; β-lactamase negative (n = 80),0.5 µg/mL
same,MIC90,Haemophilus influenzae; β-lactamase negative (n = 80),1 µg/mL
same,MIC,Haemophilus influenzae; β-lactamase positive (n = 20),0.12 to 4 µg/mL
same,MIC50,Haemophilus influenzae; β-lactamase positive (n = 20),0.5 µg/mL
same,MIC90,Haemophilus influenzae; β-lactamase positive (n = 20),1 µg/mL
same,MIC,Moraxella catarrhalis; Moraxella catarrhalis (n = 50),0.00375 to 1 µg/mL
same,MIC50,Moraxella catarrhalis; Moraxella catarrhalis (n = 50),0.25 µg/mL
same,MIC90,Moraxella catarrhalis; Moraxella catarrhalis (n = 50),1 µg/mL
same,MIC,Moraxella catarrhalis; β-lactamase negative (n = 13),0.00375 to 1 µg/mL
same,MIC50,Moraxella catarrhalis; β-lactamase negative (n = 13),0.12 µg/mL
same,MIC90,Moraxella catarrhalis; β-lactamase negative (n = 13),0.5 µg/mL
same,MIC,Moraxella catarrhalis; β-lactamase positive (n = 37),0.00375 to 1 µg/mL
same,MIC50,Moraxella catarrhalis; β-lactamase positive (n = 37),0.25 µg/mL
same,MIC90,Moraxella catarrhalis; β-lactamase positive (n = 37),1 µg/mL
same,MIC,Staphylococcus aureus; Staphylococcus aureus (n = 50),0.00375 to 0.25 µg/mL
same,MIC50,Staphylococcus aureus; Staphylococcus aureus (n = 50),0.25 µg/mL
same,MIC90,Staphylococcus aureus; Staphylococcus aureus (n = 50),0.25 µg/mL
same,MIC,Staphylococcus aureus; β-lactamase negative (n = 20),0.0075 to 0.25 µg/mL
same,MIC50,Staphylococcus aureus; β-lactamase negative (n = 20),0.25 µg/mL
same,MIC90,Staphylococcus aureus; β-lactamase negative (n = 20),0.25 µg/mL
same,MIC,Staphylococcus aureus; β-lactamase positive (n = 20),0.06 to 0.25 µg/mL
same,MIC50,Staphylococcus aureus; β-lactamase positive (n = 20),0.25 µg/mL
same,MIC90,Staphylococcus aureus; β-lactamase positive (n = 20),0.25 µg/mL
same,MIC,Staphylococcus aureus; [12],0.06 to 0.25 µg/mL
same,MIC50,Staphylococcus aureus; [12],0.12 µg/mL
same,MIC90,Staphylococcus aureus; [12],0.25 µg/mL
same,MIC,Streptococcus pyogenes; [13],0.00375 to 0.015 µg/mL
same,MIC50,Streptococcus pyogenes; [13],0.0075 µg/mL
same,MIC90,Streptococcus pyogenes; [13],0.015 µg/mL
same,MIC,Streptococcus pyogenes; [14],0.00375 to 0.015 µg/mL
same,MIC50,Streptococcus pyogenes; [14],≤ 0.00375 µg/mL
same,MIC90,Streptococcus pyogenes; [14],0.015 µg/mL
same,MIC,Streptococcus pyogenes; [15],0.00375 to 0.01 µg/mL
same,MIC50,Streptococcus pyogenes; [15],≤ 0.00375 µg/mL
same,MIC90,Streptococcus pyogenes; [15],0.015 µg/mL
same,MIC,Streptococcus pyogenes; [16],0.00375 to 0.015 µg/mL
same,MIC50,Streptococcus pyogenes; [16],≤ 0.00375 µg/mL
same,MIC90,Streptococcus pyogenes; [16],0.015 µg/mL
same,MIC,Streptococcus pyogenes; fully susceptible (n = 20),0.0075 to 0.015 µg/mL
same,MIC50,Streptococcus pyogenes; fully susceptible (n = 20),0.0075 µg/mL
same,MIC90,Streptococcus pyogenes; fully susceptible (n = 20),0.015 µg/mL
same,MIC,Streptococcus pyogenes; multi-drug resistant (n = 20),0.0075 to 0.015 µg/mL
same,MIC90,Streptococcus pyogenes; multi-drug resistant (n = 20),0.015 µg/mL
same,MIC90,Streptococcus pneumoniae [1]; [3],4 µg/mL
same,MIC90,Streptococcus pneumoniae [1]; Penicillin resistant (n = 4),4 µg/mL
same,MIC90,Streptococcus pneumoniae [1]; [4],0.03 µg/mL
